Reference: ChEMBL document CHEMBL1144686, “Solid-phase synthesis of new pyrrolobenzodiazepine-chalcone conjugates: DNA-binding affinity and anticancer activity” (2008)

Columns and labels:
DNA [1] = assay: Binding affinity to calf thymus DNA at pH 7.0 at 20 uM after 18 hrs by thermal denaturation assay; assay type: nucleic-acid assay; conditions: Bos taurus
DNA [2] = assay: Binding affinity to calf thymus DNA at pH 7.0 at 20 uM by thermal denaturation assay; assay type: nucleic-acid assay; conditions: Bos taurus
L1210 = assay: Cytotoxicity against mouse L1210 cells; assay type: functional; conditions: read-out: LC50 (the source's name)
PC-6 = assay: Cytotoxicity against human PC6 cells; assay type: functional; conditions: read-out: LD50 (the source's name)
NCI-H460 = assay: Growth inhibition of human NCI-H460 cells; assay type: functional
BT-549 = assay: Growth inhibition of human BT549 cells; assay type: functional
UACC-257 = assay: Growth inhibition of human UACC257 cells; assay type: functional
OVCAR-8 = assay: Growth inhibition of human OVCAR8 cells; assay type: functional
ACHN = assay: Growth inhibition of human ACHN cells; assay type: functional
SK-MEL-5 = assay: Growth inhibition of human SK-MEL-5 cells; assay type: functional
UO-31 = assay: Growth inhibition of human UO31 cells; assay type: functional
SF-539 = assay: Growth inhibition of human SF539 cells; assay type: functional
[3] = Growth inhibition of human 231/ATCC cells; assay type: functional
OVCAR-3 = assay: Growth inhibition of human OVCAR-3 cells; assay type: functional
MOLT-4 = assay: Growth inhibition of human MOLT4 cells; assay type: functional
HL-60 = assay: Growth inhibition of human HL60(TB) cells; assay type: functional
SK-OV-3 = assay: Growth inhibition of human SK-OV-3 cells; assay type: functional
K562 = assay: Growth inhibition of human K562 cells; assay type: functional
LOX IMVI = assay: Growth inhibition of human LOX IMVI cells; assay type: functional
MCF7 = assay: Growth inhibition of human MCF7 cells; assay type: functional
EKVX = assay: Growth inhibition of human EKVX cells; assay type: functional
MDA-MB-468 = assay: Growth inhibition of human MDA-MB-468 cells; assay type: functional
RPMI-8226 = assay: Growth inhibition of human RPMI8226 cells; assay type: functional
HCT-15 = assay: Growth inhibition of human HCT15 cells; assay type: functional
DU-145 = assay: Growth inhibition of human DU145 cells; assay type: functional
NCI-H522 = assay: Growth inhibition of human NCI-H522 cells; assay type: functional
SF-268 = assay: Growth inhibition of human SF268 cells; assay type: functional
SW-620 = assay: Growth inhibition of human SW620 cells; assay type: functional
HOP-92 = assay: Growth inhibition of human HOP92 cells; assay type: functional
NCI/ADR-RES = assay: Growth inhibition of human NCI/ADR-RES cells; assay type: functional
RXF 393 = assay: Growth inhibition of human RXF 393 cells; assay type: functional
SN12C = assay: Growth inhibition of human SN12C cells; assay type: functional
SR = assay: Growth inhibition of human SR cells; assay type: functional
CCRF-CEM = assay: Growth inhibition of human CCRF-CEM cells; assay type: functional
OVCAR-4 = assay: Growth inhibition of human OVCAR4 cells; assay type: functional
KM12 = assay: Growth inhibition of human KM12 cells; assay type: functional
[4] = Growth inhibition of human HS 578T cells; assay type: functional
IGROV-1 = assay: Growth inhibition of human IGROV1 cells; assay type: functional
CAKI-1 = assay: Growth inhibition of human CAKI1 cells; assay type: functional
TK-10 = assay: Growth inhibition of human TK10 cells; assay type: functional
HCC 2998 = assay: Growth inhibition of human HCC2998 cells; assay type: functional
MDA-MB-435 = assay: Growth inhibition of human MDA-MB-435 cells; assay type: functional
T47D = assay: Growth inhibition of human T47D cells; assay type: functional
NCI-H23 = assay: Growth inhibition of human NCI-H23 cells; assay type: functional
NCI-H226 = assay: Growth inhibition of human NCI-H226 cells; assay type: functional
NCI-H322M = assay: Growth inhibition of human NCI-H322M cells; assay type: functional
U-251 = assay: Growth inhibition of human U251 cells; assay type: functional
SNB-75 = assay: Growth inhibition of human SNB75 cells; assay type: functional
Malme-3M = assay: Growth inhibition of human MALME-3M cells; assay type: functional
M14 = assay: Growth inhibition of human M14 cells; assay type: functional
HCT-116 = assay: Growth inhibition of human HCT116 cells; assay type: functional
UACC-62 = assay: Growth inhibition of human UACC62 cells; assay type: functional
A549 = assay: Growth inhibition of human A549 cells; assay type: functional
HT-29 = assay: Growth inhibition of human HT29 cells; assay type: functional
HOP-62 = assay: Growth inhibition of human HOP62 cells; assay type: functional
SK-MEL-2 = assay: Growth inhibition of human SK-MEL-2 cells; assay type: functional
786-0 = assay: Growth inhibition of human 786-0 cells; assay type: functional
SNB-19 = assay: Growth inhibition of human SNB19 cells; assay type: functional
OVCAR-5 = assay: Growth inhibition of human OVCAR5 cells; assay type: functional
SK-MEL-28 = assay: Growth inhibition of human SK-MEL-28 cells; assay type: functional
COLO 205 = assay: Growth inhibition of human COLO 205 cells; assay type: functional

COc1cc(/C=C/C(=O)c2ccccc2O)ccc1OCCCCCOc1cc2c(cc1OC)C(=O)N1CCC[C@H]1C=N2
deltaTm (DNA [1]): 5 °C | deltaTm (DNA [2]): 3.1 °C

COc1cc(/C=C/C(=O)c2ccccc2O)ccc1OCCCCOc1cc2c(cc1OC)C(=O)N1CCC[C@H]1C=N2
deltaTm (DNA [1]): 2.1 °C | deltaTm (DNA [2]): 1.7 °C

COc1cc2c(cc1O)N=C[C@@H]1CCCN1C2=O
deltaTm (DNA [1]): 0.7 °C | CC50 (L1210): 380 nM | deltaTm (DNA [2]): 0.3 °C | CC50 (PC-6): 330 nM

COc1cc(/C=C/C(=O)c2ccccc2O)ccc1OCCCOc1cc2c(cc1OC)C(=O)N1CCC[C@H]1C=N2
GI50 (NCI-H460): 34 nM | GI50 (BT-549): 17 nM | GI50 (UACC-257): 112 nM | GI50 (OVCAR-8): 36 nM | GI50 (ACHN): 47 nM | GI50 (SK-MEL-5): 24 nM | GI50 (UO-31): 105 nM | GI50 (SF-539): 28 nM | GI50 [3]: 26 nM | GI50 (OVCAR-3): 21 nM | GI50 (MOLT-4): 17 nM | GI50 (HL-60): 17 nM | GI50 (SK-OV-3): 406 nM | GI50 (K562): 26 nM | GI50 (LOX IMVI): 18 nM | GI50 (MCF7): 32 nM | GI50 (EKVX): 204 nM | GI50 (MDA-MB-468): 16 nM | GI50 (RPMI-8226): 25 nM | GI50 (HCT-15): 247 nM | GI50 (DU-145): 25 nM | GI50 (NCI-H522): 26 nM | GI50 (SF-268): 24 nM | GI50 (SW-620): 19 nM | GI50 (HOP-92): 44 nM | GI50 (NCI/ADR-RES): 308 nM | GI50 (RXF 393): 20 nM | GI50 (SN12C): 28 nM | deltaTm (DNA [1]): 8.1 °C | GI50 (SR): 12 nM | GI50 (CCRF-CEM): 21 nM | GI50 (OVCAR-4): 61 nM | GI50 (KM12): 18 nM | GI50 [4]: 23 nM | GI50 (IGROV-1): 18 nM | GI50 (CAKI-1): 25 nM | GI50 (TK-10): 41 nM | deltaTm (DNA [2]): 5 °C | GI50 (HCC 2998): 138 nM | GI50 (MDA-MB-435): 19 nM | GI50 (T47D): 29 nM | GI50 (NCI-H23): 39 nM | GI50 (NCI-H226): 138 nM | GI50 (NCI-H322M): 307 nM | GI50 (U-251): 22 nM | GI50 (SNB-75): 36 nM | GI50 (Malme-3M): 37 nM | GI50 (M14): 46 nM | GI50 (HCT-116): 33 nM | GI50 (UACC-62): 21 nM | GI50 (A549): 31 nM | GI50 (HT-29): 30 nM | GI50 (HOP-62): 39 nM | GI50 (SK-MEL-2): 67 nM | GI50 (786-0): 25 nM | GI50 (SNB-19): 29 nM | GI50 (OVCAR-5): 25 nM | GI50 (SK-MEL-28): 20 nM | GI50 (COLO 205): 27 nM

COc1cc(/C=C/C(=O)c2ccccc2O)ccc1OCCCCOc1cc2c(cc1OC)C(=O)N1CCC[C@H]1C(=O)N2
deltaTm (DNA [1]): 1.9 °C | deltaTm (DNA [2]): 1 °C

COc1cc(/C=C/C(=O)c2ccccc2O)ccc1OCCCOc1cc2c(cc1OC)C(=O)N1CCC[C@H]1C(=O)N2
deltaTm (DNA [1]): 3.5 °C | deltaTm (DNA [2]): 2 °C

COc1cc(/C=C/C(=O)c2ccccc2O)ccc1OCCCCCOc1cc2c(cc1OC)C(=O)N1CCC[C@H]1C(=O)N2
deltaTm (DNA [1]): 9 °C | deltaTm (DNA [2]): 7.1 °C
